From patent publication US20220370440A1 (Lead Discovery Center GmbH, priority 2018, published 2022) come the findings set out here.

Each structure is given as a SMILES string. Bounds are passed on as bounds.

The term IC50 denotes the point on the concentration scale where inhibition reaches its midpoint.

In one assay the target is T1, HER2 INS YVMA (Homo sapiens, UniProt P04626, INS775YVMA).
T1 construct: purchased DPF
As to the kind of experiment: Lance Kinase Activity Assay, HER2 INS YVMA (Her2 Exon 20 INSYVMA Lance). Format: biochemical. The note with it: biochemical Lance assay. The essentials: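 Kinase phosphorylates a ULight-labelled peptide substrate; Eu anti-phospho antibody gives TR-FRET (ex 340 nm, em 665/615 nm). Compounds in 1:3 serial dilution over 8 steps, reaction started with ATP, 1 h at room temperature, stopped with EDTA-containing detection mix for 1 h. IC50 from sigmoidal dose-response curves.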

The target of assay [1] is Her2 Exon 20 INSYVMA Ba/F3 (Homo sapiens, UniProt P04626, DUP772-775, cells depend on it). As to the kind of experiment: Her2 Exon 20 INSYVMA Ba/F3 CellTiter-Glo. The class given is cell-based. The note with it: CellTiter-Glo, 72 h, read-out: Her2 Exon 20 INSYVMA Ba/F3 CTG IC50. An outline of the steps:
(§1)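 Ba/F3 cells were seeded, left 24 h at 37 °C/5% CO2, then exposed to compound dilutions in DMSO for 72 h. Viability was read as ATP luminescence (CellTiter-Glo) and IC50 fitted from dose–response curves; DMSO and 10 μM staurosporine defined the controls, and plates needed Z′ ≥0.5.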

Assay [2] deals with EGFR Exon 20 INSNPH Ba/F3 (Homo sapiens, UniProt P00533, DUP771-773, cells depend on it). In words: EGFR Exon 20 INSNPH Ba/F3 CellTiter-Glo. The class given is cell-based. The note with it: CellTiter-Glo, 72 h, read-out: EGFR Exon 20 INSNPH Ba/F3 CTG IC50. An outline of the steps:
as §1
Background: Cellular ATP, detected with luciferase, serves as a proxy for viable cell number.

The next assay deals with EGFR T790ML858R (Homo sapiens, UniProt P00533, L858R/T790M). As to the kind of experiment: EGFR T790ML858R Lance assay. The class given is biochemical. The procedure:
(§2) Inhibition is indicated as […] [nM] (“−”=not measured). Compounds having an activity designated as “A” provided an IC50≤100 nM; compounds having an activity designated as “B” provided an 100 nM<IC50≤500 nM; compounds having an activity designated as “C” provided an 500 nM<IC50≤1000 nM; compounds having an activity designated as “D” provided an 1000 nM<IC50≤100000 nM; and compounds having an activity designated as “E” provided an IC50>10000 nM.

The target of a further assay is EGFR wt (Homo sapiens, UniProt P00533). In words: EGFR wt Lance assay. Format: biochemical. The protocol: as §2
A further assay deals with H1975. In words: H1975 CellTiter-Glo. The settings on record: Homo sapiens, NCI-H1975; 72 h compound incubation; read-out: H1975 CTG IC50. The class given is cell-based. The essentials:
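Cells seeded, after 24 h at 37° C/5% CO2 treated with compounds in DMSO at various concentrations for 72 h. Viability from ATP luminescence (CellTiter-Glo); DMSO and 10 μM Staurosporine as controls; IC50 from dose-response fit, plates accepted at Z′ ≥0.5.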

The subject of another assay is A431. As to the kind of experiment: A431 CellTiter-Glo. The class given is cell-based. The note with it: Homo sapiens, A-431; 72 h compound incubation; read-out: A431 CTG IC50. The protocol:
2. Measurement of Cellular Activity
The CellTiter-Glo Luminescent Cell Viability Assay (Promega) is a homogeneous method of determining the number of viable cells in culture. It is based on quantification of ATP, indicating the presence of metabolically active cells. Cells are seeded on day 1 at cell numbers that assure assay linearity and optimal signal intensity. After incubation for 24 h in humidified chambers at 37° C. and 5% CO2, compounds in DMSO are added at different concentrations. Cells are further incubated for 72 h at 37° C. and 5% CO2. Cells treated with the compound vehicle DMSO are used as positive controls and cells treated with 10 μM Staurosporine serve as negative controls. At day 5 the CellTiter Glo Reagent is prepared according to the instructions of the kit (Promega Inc.): Reagent is mixed 1:1 with cell culture medium. Thereon, mixture and assay plates are equilibrated at room temperature for 20 min. Equal volumes of the reagent-medium-mixture is added to the volume of culture medium present in each well. The plates are mixed at ˜200 rpm for 2 minutes on an orbital shaker. The microplates are then incubated at room temperature for 10 minutes for stabilization of the luminescent signal. Following incubation the luminescence is recorded on a Victor microplate reader (Perkin Elmer) using a 200 ms integration time. The data is then analyzed with Excel using the XLFIT Plugin (dose response Fit 205) for IC50-determination. As quality control the Z′-factor is calculated from 16 positive and negative control values. Only assay results showing a Z′-factor ≥0.5 are used for further analysis.
as §2

T1 sequence (P04626 with tags, fused parts or gaps INS775YVMA): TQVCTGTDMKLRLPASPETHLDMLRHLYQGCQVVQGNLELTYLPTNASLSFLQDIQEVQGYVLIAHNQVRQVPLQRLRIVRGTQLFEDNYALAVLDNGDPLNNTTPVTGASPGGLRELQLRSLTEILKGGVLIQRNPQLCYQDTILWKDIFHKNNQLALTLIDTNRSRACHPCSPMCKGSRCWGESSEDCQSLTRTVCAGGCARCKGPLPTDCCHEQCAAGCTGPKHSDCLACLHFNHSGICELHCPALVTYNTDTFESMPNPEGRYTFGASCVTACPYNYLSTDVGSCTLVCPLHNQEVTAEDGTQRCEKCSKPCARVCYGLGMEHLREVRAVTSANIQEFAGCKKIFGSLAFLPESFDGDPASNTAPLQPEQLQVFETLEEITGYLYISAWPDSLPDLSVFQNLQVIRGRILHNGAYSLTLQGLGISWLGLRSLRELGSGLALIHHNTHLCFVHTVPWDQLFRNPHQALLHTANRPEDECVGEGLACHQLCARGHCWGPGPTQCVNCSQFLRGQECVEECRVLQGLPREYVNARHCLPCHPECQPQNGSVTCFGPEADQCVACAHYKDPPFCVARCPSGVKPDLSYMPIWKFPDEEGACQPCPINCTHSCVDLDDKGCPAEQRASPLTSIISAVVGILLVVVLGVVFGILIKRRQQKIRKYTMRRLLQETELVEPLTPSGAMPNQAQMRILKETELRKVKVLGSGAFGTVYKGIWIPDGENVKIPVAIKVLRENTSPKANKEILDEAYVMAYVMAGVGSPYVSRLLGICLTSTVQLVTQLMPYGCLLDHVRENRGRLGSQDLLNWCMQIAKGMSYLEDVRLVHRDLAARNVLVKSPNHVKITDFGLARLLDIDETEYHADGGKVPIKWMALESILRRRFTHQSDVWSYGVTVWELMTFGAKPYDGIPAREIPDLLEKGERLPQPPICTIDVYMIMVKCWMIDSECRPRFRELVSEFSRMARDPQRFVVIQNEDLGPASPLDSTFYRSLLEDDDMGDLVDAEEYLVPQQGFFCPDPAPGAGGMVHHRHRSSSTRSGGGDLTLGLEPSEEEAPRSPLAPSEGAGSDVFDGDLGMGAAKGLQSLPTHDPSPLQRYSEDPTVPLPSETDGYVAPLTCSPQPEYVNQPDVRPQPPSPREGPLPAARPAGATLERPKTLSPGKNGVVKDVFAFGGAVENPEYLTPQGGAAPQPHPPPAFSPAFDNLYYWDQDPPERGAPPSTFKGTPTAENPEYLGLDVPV
EGFR Exon 20 INSNPH Ba/F3, sequence (P00533 with tags, fused parts or gaps DUP771-773): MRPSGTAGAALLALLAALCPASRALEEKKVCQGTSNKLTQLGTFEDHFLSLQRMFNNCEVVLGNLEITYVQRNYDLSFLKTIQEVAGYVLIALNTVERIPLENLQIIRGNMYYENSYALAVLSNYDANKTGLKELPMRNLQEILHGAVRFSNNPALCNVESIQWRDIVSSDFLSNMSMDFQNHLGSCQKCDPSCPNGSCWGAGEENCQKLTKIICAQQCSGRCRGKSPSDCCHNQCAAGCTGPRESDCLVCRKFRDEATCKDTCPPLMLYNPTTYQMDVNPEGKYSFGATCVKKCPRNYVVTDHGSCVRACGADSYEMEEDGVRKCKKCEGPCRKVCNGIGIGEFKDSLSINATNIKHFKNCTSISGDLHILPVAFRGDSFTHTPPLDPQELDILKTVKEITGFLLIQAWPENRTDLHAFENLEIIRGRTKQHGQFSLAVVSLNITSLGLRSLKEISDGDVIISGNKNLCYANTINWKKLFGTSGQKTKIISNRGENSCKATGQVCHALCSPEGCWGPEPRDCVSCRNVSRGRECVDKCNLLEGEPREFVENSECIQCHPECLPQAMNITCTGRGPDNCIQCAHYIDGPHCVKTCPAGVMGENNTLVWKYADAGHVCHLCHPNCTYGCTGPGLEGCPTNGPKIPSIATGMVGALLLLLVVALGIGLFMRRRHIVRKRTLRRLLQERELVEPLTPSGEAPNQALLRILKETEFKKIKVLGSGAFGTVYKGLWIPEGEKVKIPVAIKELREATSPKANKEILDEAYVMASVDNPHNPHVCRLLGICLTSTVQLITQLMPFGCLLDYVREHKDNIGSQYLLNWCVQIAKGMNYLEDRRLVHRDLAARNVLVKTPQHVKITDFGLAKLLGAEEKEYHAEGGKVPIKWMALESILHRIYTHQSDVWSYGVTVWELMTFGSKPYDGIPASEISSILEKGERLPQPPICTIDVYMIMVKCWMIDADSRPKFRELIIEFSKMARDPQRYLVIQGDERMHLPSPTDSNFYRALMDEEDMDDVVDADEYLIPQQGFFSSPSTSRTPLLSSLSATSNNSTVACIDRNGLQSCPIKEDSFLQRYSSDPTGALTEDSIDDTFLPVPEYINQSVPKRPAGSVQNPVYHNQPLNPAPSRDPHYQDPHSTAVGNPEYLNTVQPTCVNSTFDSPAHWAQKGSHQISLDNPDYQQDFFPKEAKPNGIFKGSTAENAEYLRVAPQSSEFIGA
Her2 Exon 20 INSYVMA Ba/F3, sequence (P04626 with tags, fused parts or gaps DUP772-775): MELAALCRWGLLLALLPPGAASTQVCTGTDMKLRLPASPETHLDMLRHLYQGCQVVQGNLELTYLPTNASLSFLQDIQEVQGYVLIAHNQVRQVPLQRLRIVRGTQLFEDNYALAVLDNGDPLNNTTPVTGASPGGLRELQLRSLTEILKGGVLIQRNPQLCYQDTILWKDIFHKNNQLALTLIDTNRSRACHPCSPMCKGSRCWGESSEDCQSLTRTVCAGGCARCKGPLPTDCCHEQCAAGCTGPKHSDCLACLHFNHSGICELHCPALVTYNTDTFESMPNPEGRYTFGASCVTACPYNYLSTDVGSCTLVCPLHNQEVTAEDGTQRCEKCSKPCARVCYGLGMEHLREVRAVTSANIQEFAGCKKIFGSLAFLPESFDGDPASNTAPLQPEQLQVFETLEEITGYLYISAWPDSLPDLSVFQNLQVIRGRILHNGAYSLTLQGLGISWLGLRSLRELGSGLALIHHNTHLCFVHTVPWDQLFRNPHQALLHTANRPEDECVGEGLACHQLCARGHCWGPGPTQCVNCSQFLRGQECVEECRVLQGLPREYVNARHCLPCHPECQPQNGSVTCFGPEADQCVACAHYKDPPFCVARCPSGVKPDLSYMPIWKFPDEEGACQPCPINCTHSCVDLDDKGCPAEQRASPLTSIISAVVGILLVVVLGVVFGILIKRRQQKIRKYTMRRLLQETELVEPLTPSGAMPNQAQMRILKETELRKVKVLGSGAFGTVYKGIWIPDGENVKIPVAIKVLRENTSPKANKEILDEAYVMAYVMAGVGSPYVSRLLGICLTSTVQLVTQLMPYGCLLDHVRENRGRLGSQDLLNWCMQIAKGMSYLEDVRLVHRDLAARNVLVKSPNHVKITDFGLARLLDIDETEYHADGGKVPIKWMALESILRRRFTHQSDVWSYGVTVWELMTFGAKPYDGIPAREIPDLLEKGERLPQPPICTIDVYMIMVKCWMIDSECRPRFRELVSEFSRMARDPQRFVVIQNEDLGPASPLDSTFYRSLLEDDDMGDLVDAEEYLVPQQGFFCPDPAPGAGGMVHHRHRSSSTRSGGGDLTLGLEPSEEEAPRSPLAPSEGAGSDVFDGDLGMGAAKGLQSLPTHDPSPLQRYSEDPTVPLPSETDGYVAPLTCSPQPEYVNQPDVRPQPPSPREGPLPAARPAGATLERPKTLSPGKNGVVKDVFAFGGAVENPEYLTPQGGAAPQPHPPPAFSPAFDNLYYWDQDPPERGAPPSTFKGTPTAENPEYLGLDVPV
EGFR T790ML858R, sequence (P00533 25-1210 T790M/L858R): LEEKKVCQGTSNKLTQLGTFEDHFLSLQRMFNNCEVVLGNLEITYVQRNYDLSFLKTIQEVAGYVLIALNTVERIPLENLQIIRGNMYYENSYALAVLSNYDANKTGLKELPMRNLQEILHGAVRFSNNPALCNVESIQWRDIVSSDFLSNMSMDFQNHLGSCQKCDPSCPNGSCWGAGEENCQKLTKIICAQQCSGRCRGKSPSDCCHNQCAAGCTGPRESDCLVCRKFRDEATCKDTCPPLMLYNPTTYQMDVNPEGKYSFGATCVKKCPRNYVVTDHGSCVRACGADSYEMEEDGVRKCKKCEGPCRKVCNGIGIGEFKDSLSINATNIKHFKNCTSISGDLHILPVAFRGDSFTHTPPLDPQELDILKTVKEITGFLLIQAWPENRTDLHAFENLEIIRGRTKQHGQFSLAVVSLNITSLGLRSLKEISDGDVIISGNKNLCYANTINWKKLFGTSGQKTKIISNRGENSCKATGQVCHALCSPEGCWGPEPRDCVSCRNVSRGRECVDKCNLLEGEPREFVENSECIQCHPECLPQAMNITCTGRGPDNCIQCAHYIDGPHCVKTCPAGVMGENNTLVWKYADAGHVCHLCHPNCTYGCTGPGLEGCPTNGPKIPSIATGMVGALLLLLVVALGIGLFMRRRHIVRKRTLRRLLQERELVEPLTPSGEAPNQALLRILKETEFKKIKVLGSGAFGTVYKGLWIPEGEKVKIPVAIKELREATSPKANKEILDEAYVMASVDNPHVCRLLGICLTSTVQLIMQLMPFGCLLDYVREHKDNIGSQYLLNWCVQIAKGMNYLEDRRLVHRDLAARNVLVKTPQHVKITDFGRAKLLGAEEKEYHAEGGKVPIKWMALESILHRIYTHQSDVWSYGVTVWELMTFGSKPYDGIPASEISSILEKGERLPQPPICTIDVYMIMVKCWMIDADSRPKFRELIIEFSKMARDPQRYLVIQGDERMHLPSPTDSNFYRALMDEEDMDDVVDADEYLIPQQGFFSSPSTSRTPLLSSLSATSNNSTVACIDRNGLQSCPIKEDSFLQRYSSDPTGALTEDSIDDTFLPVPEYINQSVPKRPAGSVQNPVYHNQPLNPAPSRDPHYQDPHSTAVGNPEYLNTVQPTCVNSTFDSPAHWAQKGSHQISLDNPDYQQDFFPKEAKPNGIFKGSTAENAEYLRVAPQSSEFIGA

On to `C=CC(=O)Nc1cc(-c2c(-c3ccc(N4CCN(C)CC4)cc3)[nH]c3ncc(C(=O)NCC4CCN(C)CC4)cc23)ccc1C` [Example 129, 3-(3-acrylamido-4-methylphenyl)-2-(4-(4-methylpiperazin-1-yl)phenyl)-N-((1-methylpiperidin-4-yl)methyl)-1H-pyrrolo[2,3-b]pyridine-5-carboxamide], for which the IC50 at HER2 INS YVMA is 500 to 1000 nM; against EGFR T790ML858R, 100 to 500 nM; against EGFR wt, 100 to 500 nM; with H1975, above 10000 nM; with A431, above 10000 nM. For the same compound, the GI50 in assay [1] and in assay [2] was above 10000 nM throughout.

`C=CC(=O)Nc1cc(-c2c(-c3ccc(N4CCN(C)CC4)cc3)[nH]c3ncc(NC(=O)C(C)C)cc23)ccc1C` [Example 200, N-(5-(5-isobutyramido-2-(4-(4-methylpiperazin-1-yl)phenyl)-1H-pyrrolo[2,3-b]pyridin-3-yl)-2-methylphenyl)acrylamide 2,2,2-trifluoroacetate]: the IC50 at HER2 INS YVMA is at most 100 nM; against EGFR T790ML858R, at most 100 nM; against EGFR wt, at most 100 nM; in the assay on H1975 it was 1000 to 100000 nM; with A431, 1000 to 100000 nM. The GI50 in assay [1] and in assay [2] was 100 to 500 nM in each case.

Take `C=CC(=O)Nc1cc(-c2c(-c3ccc(N4CCN(C)CC4)cc3)[nH]c3ncc(C(=O)NCc4nncn4C)cc23)ccc1C` [Example 130, 3-(3-acrylamido-4-methylphenyl)-N-((4-methyl-4H-1,2,4-triazol-3-yl)methyl)-2-(4-(4-methylpiperazin-1-yl)phenyl)-1H-pyrrolo[2,3-b]pyridine-5-carboxamide]: the IC50 on HER2 INS YVMA is 100 to 500 nM; against EGFR T790ML858R it was 100 to 500 nM; at EGFR wt, at most 100 nM; in the assay on H1975 it was above 10000 nM; with A431, above 10000 nM. In addition, the GI50 in assay [1] and in assay [2] was above 10000 nM in each case.

Turning to `C=CC(=O)N1CCc2ccc(-c3c(-c4ccnc(N5CCN(C)CC5)c4)[nH]c4nccc(OCC)c34)cc21` [Example 105], the IC50 on HER2 INS YVMA was at most 100 nM; against EGFR T790ML858R, at most 100 nM; against EGFR wt, at most 100 nM; in the assay with H1975, at most 100 nM; in the assay on A431, 100 to 500 nM. In addition, the GI50 in assay [1] and in assay [2] was 100 to 500 nM in each case.

In the case of `C=CC(=O)Nc1cc(-c2c(-c3ccc(N4CCN(C)CC4)cc3)[nH]c3ncc(C(=O)OCCOC)cc23)ccc1C` [Example 140, 2-methoxyethyl 3-(3-acrylamido-4-methylphenyl)-2-(4-(4-methylpiperazin-1-yl)phenyl)-1H-pyrrolo[2,3-b]pyridine-5-carboxylate], the IC50 was at most 100 nM on HER2 INS YVMA; at most 100 nM against EGFR T790ML858R; at most 100 nM against EGFR wt; 100 to 500 nM in the assay on H1975; 1000 to 100000 nM in the assay on A431. Further, the GI50 in assay [1] and in assay [2] was 100 to 500 nM throughout.

For the compound `C=CC(=O)Nc1cc(-c2c(-c3ccc(N4CCN(C)CC4)cc3)[nH]c3ncc(CC)cc23)ccc1C` [Example 191, N-(5-(5-ethyl-2-(4-(4-methylpiperazin-1-yl)phenyl)-1H-pyrrolo[2,3-b]pyridin-3-yl)-2-methylphenyl)acrylamide 2,2,2-trifluoroacetate], the IC50 is at most 100 nM against HER2 INS YVMA; at most 100 nM against EGFR T790ML858R; at most 100 nM against EGFR wt; at most 100 nM in the assay on H1975; 1000 to 100000 nM in the assay on A431. Besides, the GI50 in assay [1] and in assay [2] was 100 to 500 nM throughout.

Regarding `C=CC(=O)N1CCCc2ccc(-c3c(-c4ccc(CN5CCN(C)CC5)nc4)[nH]c4nccc(Cl)c34)cc21` [Example 89, 1-(7-(4-chloro-2-(6-((4-methylpiperazin-1-yl)methyl)pyridin-3-yl)-1H-pyrrolo[2,3-b]pyridin-3-yl)-3,4-dihydroquinolin-1(2H)-yl)prop-2-en-1-one], the IC50 against HER2 INS YVMA is at most 100 nM; against EGFR T790ML858R, at most 100 nM; against EGFR wt, at most 100 nM; in the assay with H1975, 100 to 500 nM; with A431 it was 500 to 1000 nM. The GI50 in assay [1] and in assay [2] was 100 to 500 nM in each case.

As to `C=CC(=O)Nc1cc(-c2c(-c3ccc(N4CCN(C)CC4)cc3)[nH]c3ncc(CC(=O)N(C)C)cc23)ccc1C` [Example 194, N-(5-(5-(2-(dimethylamino)-2-oxoethyl)-2-(4-(4-methylpiperazin-1-yl)phenyl)-1H-pyrrolo[2,3-b]pyridin-3-yl)-2-methylphenyl)acrylamide 2,2,2-trifluoroacetate], the IC50 on HER2 INS YVMA was at most 100 nM; at EGFR T790ML858R it was at most 100 nM; against EGFR wt, at most 100 nM; with H1975, 1000 to 100000 nM; with A431, 1000 to 100000 nM. For the same compound, the GI50 in assay [1] and in assay [2] was 1000 to 10000 nM in each case.

With `C=CC(=O)N1CCc2ccc(-c3c(-c4ccc(OCCN5CCCC5)cc4)[nH]c4nccc(OCC)c34)cc21` [Example 107, 1-(6-(4-ethoxy-2-(4-(2-(pyrrolidin-1-yl)ethoxy)phenyl)-1H-pyrrolo[2,3-b]pyridin-3-yl)indolin-1-yl)prop-2-en-1-one], the IC50 against HER2 INS YVMA was at most 100 nM; at EGFR T790ML858R, at most 100 nM; against EGFR wt, at most 100 nM; in the assay on H1975, at most 100 nM; in the assay with A431, 500 to 1000 nM. Besides, the GI50 in assay [1] and in assay [2] was 100 to 500 nM throughout.

Consider `C=CC(=O)Nc1cc(-c2c(-c3ccc(N4CCN(C)CC4)cc3)[nH]c3ncc(C(=O)OC4CCCC4)cc23)ccc1C` [Example 139, cyclopentyl 3-(3-acrylamido-4-methylphenyl)-2-(4-(4-methylpiperazin-1-yl)phenyl)-1H-pyrrolo[2,3-b]pyridine-5-carboxylate], for which the IC50 is 100 to 500 nM at HER2 INS YVMA; at most 100 nM against EGFR T790ML858R; at most 100 nM against EGFR wt; 100 to 500 nM in the assay on H1975; 1000 to 100000 nM in the assay with A431. For the same compound, the GI50 in assay [1] and in assay [2] was 500 to 1000 nM each time.

Take `C=CC(=O)Nc1cc(-c2c(-c3ccc(N4CCN(S(=O)(=O)CC)CC4)cc3)[nH]c3ncc(C(=O)OC(C)C)cc23)ccc1C` [Example 184, isopropyl 3-(3-acrylamido-4-methylphenyl)-2-(4-(4-(ethylsulfonyl)piperazin-1-yl)phenyl)-1H-pyrrolo[2,3-b]pyridine-5-carboxylate]: the IC50 at HER2 INS YVMA was 500 to 1000 nM; on EGFR T790ML858R, 100 to 500 nM; against EGFR wt, at most 100 nM; in the assay with H1975, 1000 to 100000 nM; in the assay on A431, above 10000 nM. Besides, the GI50 in assay [1] and in assay [2] was 1000 to 10000 nM in each case.

With `C=CC(=O)Nc1cc(-c2c(-c3ccc(C4CCN(C)CC4)cc3)[nH]c3ncc(C(=O)OC(C)C)cc23)ccc1C` [Example 149, isoproyl 3-(3-acrylamido-4-methylphenyl)-2-(4-(1-methylpiperidin-4-yl)phenyl)-1H-pyrrolo[2,3-b]pyridine-5-carboxylate 2,2,2-trifluoroacetate], the half-inhibitory concentration (IC50) was at most 100 nM at HER2 INS YVMA; at most 100 nM on EGFR T790ML858R; at most 100 nM against EGFR wt; 100 to 500 nM in the assay with H1975; 1000 to 100000 nM in the assay with A431. Besides, the GI50 in assay [1] and in assay [2] was 100 to 500 nM each time.
